Measurements taken from patent US8637525B2, “Compounds for the reduction of beta-amyloid production” (Bristol-Myers Squibb Company, priority 2009, dated 2014).
Counter-ions that a name gives are not always drawn.

What follows are molecules tested on Aβ1-42 production (assay: Cellular assay for inhibition of Aβ1-42 production (H4 APP751 SWE clone 8.20)). Conditions: 19 h, H4 APP751 SWE clone 8.20 cells, 19 h incubation; class symbols; read-out: Activity Rating (Aβ42 cellular IC50).
Format: cell-based
How it was run: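 Aβ42 read by time-resolved FRET using neoepitope antibody 565 (0.8 ng/well) paired with N-terminal 26D6 (75 ng/well), incubated overnight at 4 °C, then IC50 curve fitting. Cells: H4 APP751 Swedish clone 8.20, exposed to compound for 19 h at 37 °C.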

SMILES	IC50
CNc1nc(Nc2ccc(-n3cnc(Cl)c3)c(OC)c2)nc2c1CN(S(C)(=O)=O)CC2c1ccccc1 (stereo not shown) [Example 129A, N2-(4-(4-chloro-1H-imidazol-1-yl)-3-methoxyphenyl)-N4-methyl-6-(methylsulfonyl)-8-phenyl-5,6,7,8-tetrahydropyrido[4,3-d]pyrimidine-2,4-diamine]	1.5 to 9.9 nM
CCNc1nc(Nc2ccc(-n3cnc(C)n3)c(OC)c2)nc2c1COCC2c1ccc(F)cc1 (stereo not shown) [Example 55B, N4-ethyl-8-(4-fluorophenyl)-N2-(3-methoxy-4-(3-methyl-1H-1,2,4-triazol-1-yl)phenyl)-7,8-dihydro-5H-pyrano[4,3-d]pyrimidine-2,4-diamine]	10 to 100 nM
CNc1nc(Nc2ccc(-n3ncnc3C)c(F)c2)nc2c1CN(S(=O)(=O)C1CC1)CC2c1ccccc1 (stereo not shown) [Example 142, 6-(cyclopropylsulfonyl)-N2-(3-fluoro-4-(5-methyl-1H-1,2,4-triazol-1-yl)phenyl)-N4-methyl-8-phenyl-5,6,7,8-tetrahydropyrido[4,3-d]pyrimidine-2,4-diamine]	10 to 100 nM
CCNc1nc(Nc2ccc(-n3cnc(Cl)c3)c(OC)c2)nc2c1COC2c1ccc(F)cc1 (stereo not shown) [Example 75, N^2-(4-(4-chloro-1H-imidazol-1-yl)-3-methoxyphenyl)-N^4-ethyl-7-(4-fluorophenyl)-5,7-dihydrofuro[3,4-d]pyrimidine-2,4-diamine]	10 to 100 nM
CCNc1nc(Nc2ccc(-n3cnc(C)n3)c(F)c2)nc2c1CN(C)CC2c1ccccc1 (stereo not shown) [Example 152, N4-ethyl-N2-(3-fluoro-4-(3-methyl-1H-1,2,4-triazol-1-yl)phenyl)-6-methyl-8-phenyl-5,6,7,8-tetrahydropyrido[4,3-d]pyrimidine-2,4-diamine]	10 to 100 nM
CNc1nc(Nc2ccc(-n3ncnc3C)c(F)c2)nc2c1COC2c1ccc(F)cc1 (racemic) [Example 82, N2-(3-fluoro-4-(5-methyl-1H-1,2,4-triazol-1-yl)phenyl)-7-(4-fluorophenyl)-N4-methyl-5,7-dihydrofuro[3,4-d]pyrimidine-2,4-diamine, TFA]	10 to 100 nM
CCN(C)c1nc(Nc2ccc(-n3cnc(Cl)c3)c(OC)c2)nc2c1COCC2c1ccc(F)cc1 (racemic) [Example 62, N2-(4-(4-chloro-1H-imidazol-1-yl)-3-methoxyphenyl)-N4-ethyl-8-(4-fluorophenyl)-N4-methyl-7,8-dihydro-5H-pyrano[4,3-d]pyrimidine-2,4-diamine]	10 to 100 nM
COc1cc(Nc2nc3c(c(N4C[C@@H](C)O[C@@H](C)C4)n2)CCC3c2ccc(F)cc2)ccc1-n1cnc(Cl)c1 (stereo partly shown) [Example 21]	10 to 100 nM
CNC1CCN(c2nc(Nc3ccc(-n4cnc(Cl)c4)c(OC)c3)nc3c2CCC3c2ccc(F)cc2)C1 (stereo not shown) [Example 32, N-(4-(4-chloro-1H-imidazol-1-yl)-3-methoxyphenyl)-7-(4-fluorophenyl)-4-(3-(methylamino)pyrrolidin-1-yl)-6,7-dihydro-5H-cyclopenta[d]pyrimidin-2-amine]	10 to 100 nM
COc1cc(Nc2ncc3c(n2)C(c2ccc(F)cc2)CCC3)ccc1-n1cnc(Cl)c1 (stereo not shown) [Example 128, N-(4-(4-Chloro-1H-imidazol-1-yl)-3-methoxyphenyl)-8-(4-fluorophenyl)-5,6,7,8-tetrahydroquinazolin-2-amine]	100 to 1000 nM
CNc1nc(Nc2ccc(-n3cnc(C)n3)c(F)c2)nc2c1CN(C)CC2c1ccccc1 (stereo not shown) [Example 149, N2-(3-fluoro-4-(3-methyl-1H-1,2,4-triazol-1-yl)phenyl)-N4,6-dimethyl-8-phenyl-5,6,7,8-tetrahydropyrido[4,3-d]pyrimidine-2,4-diamine]	10 to 100 nM

Same assay, conditions: 19 h, H4 APP751 SWE clone 8.20 cells, 19 h incubation; read-out: Activity Rating (Aβ42 cellular IC50), numeric value

SMILES	IC50
CNc1nc(Nc2cnc(-n3cnc(Cl)c3)c(OC)c2)nc2c1CCC2c1cc(F)c(F)c(F)c1 (stereo not shown) [Example 105, N^2-(6-(4-Chloro-1H-imidazol-1-yl)-5-methoxypyridin-3-yl)-N^4-methyl-7-(3,4,5-trifluorophenyl)-6,7-dihydro-5H-cyclopenta[d]pyrimidine-2,4-diamine]	8.8 nM
CNc1nc(Nc2ccc3c(ccn3C)c2)nc2c1CCC2c1ccccc1 (stereo not shown) [Example 254, N4-methyl-N2-(1-methyl-1H-indol-5-yl)-7-phenyl-6,7-dihydro-5H-cyclopenta[d]pyrimidine-2,4-diamine]	1000 nM
CCNc1nc(Nc2ccc(-n3cnc(C)n3)c(F)c2)nc2c1CN(C(=O)C1CC1)CC2c1ccccc1 (stereo not shown) [Example 143B, cyclopropyl(4-(ethylamino)-2-(3-fluoro-4-(3-methyl-1H-1,2,4-triazol-1-yl)phenylamino)-8-phenyl-7,8-dihydropyrido[4,3-d]pyrimidin-6(5H)-yl)methanone]	430 nM
CCNc1nc(Nc2ccc(-n3ncnc3C)c(F)c2)nc2c1COC2c1ccc(F)cc1 (single isomer, unassigned) [Example 78A, N^4-ethyl-N^2-(3-fluoro-4-(5-methyl-1H-1,2,4-triazol-1-yl)phenyl)-7-(4-fluorophenyl)-5,7-dihydrofuro[3,4-d]pyrimidine-2,4-diamine]	19 nM
CCNc1nc(Nc2ccc(-n3cnc(C)n3)c(F)c2)nc2c1CN(CC(F)F)CC2c1ccccc1 (stereo not shown) [Example 195, 6-(2,2-difluoroethyl)-N4-ethyl-N2-(3-fluoro-4-(3-methyl-1H-1,2,4-triazol-1-yl)phenyl)-8-phenyl-5,6,7,8-tetrahydropyrido[4,3-d]pyrimidine-2,4-diamine]	17 nM
CNC1CN(c2nc(Nc3ccc(-n4cnc(Cl)c4)c(OC)c3)nc3c2CCC3c2ccc(F)cc2)C1 (stereo not shown) [Example 33, N-(4-(4-chloro-1H-imidazol-1-yl)-3-methoxyphenyl)-7-(4-fluorophenyl)-4-(3-(methylamino)azetidin-1-yl)-6,7-dihydro-5H-cyclopenta[d]pyrimidin-2-amine]	100 nM
CNc1nc(Nc2ccc(-n3cnc(Cl)c3)c(OC)c2)nc2c1COCC2c1ccccc1 (stereo not shown) [Example 51, N^2-(4-(4-chloro-1H-imidazol-1-yl)-3-methoxyphenyl)-N^4-methyl-8-phenyl-7,8-dihydro-5H-pyrano[4,3-d]pyrimidine-2,4-diamine]	4.5 nM

Same assay, conditions: H4 APP751 SWE clone 8.20 cells, 19 h incubation; class symbols; read-out: Activity Rating (Aβ42 cellular IC50)

SMILES	IC50
COc1cc(Nc2nc3c(c(N4CCC4)n2)CCC3c2ccc(OC(F)(F)F)cc2)ccc1-n1cnc(Cl)c1 (single isomer, unassigned) [Example 101B, 4-(azetidin-1-yl)-N-(4-(4-chloro-1H-imidazol-1-yl)-3-methoxyphenyl)-7-(4-(trifluoromethoxy)phenyl)-6,7-dihydro-5H-cyclopenta[d]pyrimidin-2-amine]	10 to 100 nM
COc1cc(Nc2nc3c(c(N4CCCC4C)n2)CCC3c2ccc(F)cc2)ccc1-n1cnc(Cl)c1 (single isomer, unassigned) [Example 19A, N-(4-(4-chloro-1H-imidazol-1-yl)-3-methoxyphenyl)-7-(4-fluorophenyl)-4-(2-methylpyrrolidin-1-yl)-6,7-dihydro-5H-cyclopenta[d]pyrimidin-2-amine]	10 to 100 nM
CNc1nc(Nc2ccc(-n3cnc(Cl)c3)c(OC)c2)nc2c1COCC2c1ccc(Cl)cc1 (single isomer, unassigned) [Example 64B, N^2-(4-(4-chloro-1H-imidazol-1-yl)-3-methoxyphenyl)-8-(4-chlorophenyl)-N^4-methyl-7,8-dihydro-5H-pyrano[4,3-d]pyrimidine-2,4-diamine]	10 to 100 nM
CNc1nc(Nc2ccc(-n3cnc(Cl)c3)c(OC)c2)nc2c1COCC2c1ccc(Cl)cc1 (single isomer, unassigned) [Example 64A, N^2-(4-(4-chloro-1H-imidazol-1-yl)-3-methoxyphenyl)-8-(4-chlorophenyl)-N^4-methyl-7,8-dihydro-5H-pyrano[4,3-d]pyrimidine-2,4-diamine]	1.5 to 9.9 nM
COc1cc(Nc2nc3c(c(N(C)C)n2)CCC3c2ccc(F)c(F)c2)ccc1-n1cnc(Cl)c1 (single isomer, unassigned) [Example 95B, N^2-(4-(4-chloro-1H-imidazol-1-yl)-3-methoxyphenyl)-7-(3,4-difluorophenyl)-N^4,N^4-dimethyl-6,7-dihydro-5H-cyclopenta[d]pyrimidine-2,4-diamine]	10 to 100 nM
[2H]C([2H])([2H])Nc1nc(Nc2ccc(-n3cnc(Cl)c3)c(OC)c2)nc2c1CCC2c1ccccc1 (single isomer, unassigned) [Example 176A, N^2-(4-(4-Chloro-1H-imidazol-1-yl)-3-methoxyphenyl)-N^4-trideuteromethyl-7-phenyl-6,7-dihydro-5H-cyclopenta[d]pyrimidine-2,4-diamine]	1.5 to 9.9 nM
CNc1nc(Nc2ccc(-n3cnc(C)c3)c(OC)c2)nc2c1COCC2c1ccc(Cl)cc1 (single isomer, unassigned) [Example 70A, 8-(4-chlorophenyl)-N^2-(3-methoxy-4-(4-methyl-1H-imidazol-1-yl)phenyl)-N^4-methyl-7,8-dihydro-5H-pyrano[4,3-d]pyrimidine-2,4-diamine]	1.5 to 9.9 nM
CCNc1nc(Nc2ccc(-n3cnc(Cl)c3)c(OC)c2)nc2c1CN(S(=O)(=O)CC)CC2c1ccccc1 (stereo not shown) [Example 138, N2-(4-(4-chloro-1H-imidazol-1-yl)-3-methoxyphenyl)-N4-ethyl-6-(ethylsulfonyl)-8-phenyl-5,6,7,8-tetrahydropyrido[4,3-d]pyrimidine-2,4-diamine]	10 to 100 nM
CCNc1nc(Nc2ccc(-n3cnc(Cl)c3)c(OC)c2)nc2c1COCC2c1ccc(F)cc1 (stereo not shown) [Example 56B, N2-(4-(4-chloro-1H-imidazol-1-yl)-3-methoxyphenyl)-N4-ethyl-8-(4-fluorophenyl)-7,8-dihydro-5H-pyrano[4,3-d]pyrimidine-2,4-diamine]	10 to 100 nM
CNc1nc(Nc2ccc(-n3cnc(Cl)c3)c(OC)c2)nc2c1CCC2c1ccccc1 (single isomer, unassigned) [Example 7B, N^2-(4-(4-chloro-1H-imidazol-1-yl)-3-methoxyphenyl)-N^4-methyl-7-phenyl-6,7-dihydro-5H-cyclopenta[d]pyrimidine-2,4-diamine]	10 to 100 nM
